Consider two compounds from PMC5161641 (Nature, 2016).

In assay [1] the target is T1, human P2X3 receptor (hP2X3-MFC) (Homo sapiens, UniProt P56373).
T1 sequence (P56373 6-364): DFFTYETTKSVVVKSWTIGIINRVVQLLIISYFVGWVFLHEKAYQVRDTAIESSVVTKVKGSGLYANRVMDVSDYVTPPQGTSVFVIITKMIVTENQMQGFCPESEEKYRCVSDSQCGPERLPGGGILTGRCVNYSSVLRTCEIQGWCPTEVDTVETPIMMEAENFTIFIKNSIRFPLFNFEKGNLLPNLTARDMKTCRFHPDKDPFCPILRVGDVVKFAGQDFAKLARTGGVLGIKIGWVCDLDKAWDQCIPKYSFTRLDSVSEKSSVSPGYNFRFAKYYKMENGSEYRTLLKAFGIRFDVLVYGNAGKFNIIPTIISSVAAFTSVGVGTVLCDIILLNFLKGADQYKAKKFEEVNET
The experiment in a line: X-ray structure of soaked crystal. The class given is binding.

The target of assay [2] is T1, human P2X3 receptor (hP2X3-MFC). The assay can be described thus: SPA 3H-ATP saturation binding.
The target of assay [3] is T2, human P2X3 receptor (hP2X3-MFCslow) (Homo sapiens, UniProt P56373, T13P/S15V/V16I).
T2 sequence (P56373 6-364 T13P/S15V/V16I): T1 sequence (P56373 6-364) with T8P, S10V, V11I
The experiment in a line: SPA 3H-ATP saturation binding.

Residue numbers refer to the chain shown, from its start.

The compound `CSc1nc(N)c2ncn([C@@H]3O[C@H](COP(=O)(O)OP(=O)(O)OP(=O)(O)O)[C@@H](O)[C@H]3O)c2n1` [2-methylthio-ATP, 2-(methylthio)adenosine 5′-triphosphate] had a Ki in assay [1] of 1.9 ± 0.1 nM.

With `Nc1ncnc2c1ncn2[C@@H]1O[C@H](COP(=O)(O)OP(=O)(O)OP(=O)(O)O)[C@@H](O)[C@H]1O` [ATP], the Kd in assay [2] stood at 2.8 ± 0.1 nM; in assay [3], 3.3 ± 0.3 nM.
